Laboratory results: patent US12016335B2, “Stabilized low-concentration metsulfuron-methyl liquid composition” (FMC CORPORATION, priority 2013, dated 2024)

Assay: Chemical stability of metsulfuron-methyl and thifensulfuron-methyl during aging of compositions at 40° C. (HPLC)
Format: physicochemical
Description: When prepared, the compositions were analyzed by HPLC for metsulfuron-methyl and thifensulfuron-methyl content. The stability of metsulfuron-methyl and thifensulfuron-methyl in the compositions prepared was then determined by aging samples in ovens at 40° C. for 4 and 8 weeks. Storage at 40° C. at 8 weeks simulates two-year storage at ambient temperature. Control samples were stored in a freezer at −6° C. […] At the end of the allotted times, samples were removed from the ovens and analyzed by HPLC for metsulfuron-methyl or thifensulfuron-methyl content. The relative chemical stability was calculated by dividing the assay of the oven-aged sample by that of the control sample analyzed on the same day.

In the case of `COC(=O)c1sccc1S(=O)(=O)NC(=O)Nc1nc(C)nc(OC)n1` [thifensulfuron-methyl, methyl 3-[[[[(4-methoxy-6-methyl-1,3,5-triazin-2-yl)amino]carbonyl]amino]-sulfonyl]-2-thiophenecarboxylate], the “stability of the thifensulfuron-methyl component itself” value is reported as “excellent stability”.
